Measured values from patent publication US7737138B2 (priority 2004, dated 2010).
pEC50, pIC50: −log10 of the molar value. Where a name gives a salt, the structure may show the parent alone. Read-outs that look alike come from different tables or passages of the source.

Assays:
[1] = molecular target: tau-tau binding: truncated tau (residues 297-390; dGA) and full-length tau (T40) (Homo sapiens, UniProt P10636); settings: for pIC50: read-out: B50
[2] = molecular target: full-length tau (T40) / 12 kD PHF-core tau fragment in fibroblast cells (3T6) (Homo sapiens, UniProt P10636); assay: cell-based; assay type: cell-based
Chain of full-length tau (T40) / 12 kD PHF-core tau fragment in fibroblast cells (3T6) (P10636 612-707): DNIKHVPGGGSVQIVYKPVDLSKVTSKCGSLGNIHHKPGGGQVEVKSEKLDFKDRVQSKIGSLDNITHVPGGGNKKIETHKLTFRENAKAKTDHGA

[3] = test system: fibroblast cells (3T6); set-up: unit not given beside the values
[4] = test system: viruses such as HIV and West Nile Virus; settings: MTC under the name Virostat, from Bioenvision Inc.; cited from earlier work

Chain of tau-tau binding: truncated tau (residues 297-390; dGA) and full-length tau (T40) (P10636 614-707): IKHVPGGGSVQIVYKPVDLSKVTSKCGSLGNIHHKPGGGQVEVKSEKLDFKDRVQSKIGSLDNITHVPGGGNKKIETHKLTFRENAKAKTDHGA

| B50 [1] | Compound | pIC50 ([1]; concentration of compound required to inhibit the tau-tau binding by 50%, […]) | pEC50 [2] | pIC50 [1] | LD50 [3] | viricidal activity in vitro [4] |
| --- | --- | --- | --- | --- | --- | --- |
| – | Ethyl-thioninium iodide [ETI] | < 3.30 | 7.22 | – | – | – |
| – | 1,9-Diethyl Ethylthioninium chloride [DEETC] | – | 9.22 | 5.43 | 1.6 ± 0.4 (13) | – |
| – | CN(C)c1ccc2nc3ccc(N(C)C)cc3[s+]c2c1 [MTC, Methythioninium Chloride] | – | – | – | – | potent viricidal activity |
| 145.4 ± 5.7 (5) | CCN(CC)c1ccc2nc3ccc(N(CC)CC)cc3[s+]c2c1 [ETZ, Ethylthioninium Chloride (ETC) Zinc Chloride (Double Salt)] | – | 7.22 | – | – | – |
| – | Ethylthioninium Chloride [ETC] | – | 7.15 | 4.31 | 32.0 ± 4.0 (26) | – |
